Results as given in ChEMBL document CHEMBL4033695, “Synthesis and biological evaluation of novel 5-aryl-4-(5-nitrofuran-2-yl)-pyrimidines as potential anti-bacterial agents” (Bioorg Med Chem Lett, 2017).
Values after ≈ are worked out from the molar mass of the structure shown.

Tests used:
Citrobacter braakii = assay: Antibacterial activity against Citrobacter braakii ATCC 101/57 by two-fold serial dilution method; type: functional
Staphylococcus aureus [1] = assay: Antibacterial activity against Staphylococcus aureus ATCC 25923 by two-fold serial dilution method; type: functional
[2] = Cytotoxicity against mouse MacCoy B cells after 24 hrs by p-Nitro-Blue tetrazolium chloride dye based colorometric method; type: cell-based
Neisseria gonorrhoeae [3] = assay: Antibacterial activity against gonorrhea patient derived azithromycin resistant-Neisseria gonorrhoeae by two-fold serial dilution method; type: functional
Escherichia coli = assay: Antibacterial activity against Escherichia coli ATCC 8739 by two-fold serial dilution method; type: functional
Neisseria gonorrhoeae [4] = assay: Potency index, ratio of spectinomycin MIC to compound MIC for Neisseria gonorrhoeae NCTC 8375/ATCC 19424; type: functional
Staphylococcus aureus [5] = assay: Potency index, ratio of spectinomycin MIC to compound MIC for Staphylococcus aureus ATCC 25923; type: functional
Neisseria gonorrhoeae [6] = assay: Antibacterial activity against Neisseria gonorrhoeae NCTC 12700/ATCC 49226 by two-fold serial dilution method; type: functional
[7] = Toxicity in mouse administered as single oral dose measured for 14 days; conditions: in vivo
[8] = system: Mycobacterium tuberculosis; assay: Antitubercular activity against Mycobacterium tuberculosis H37Rv after […] by micro broth dilution method; type: functional
Shigella flexneri = assay: Antibacterial activity against Shigella flexneri RCPM 1a8516 by two-fold serial dilution method; type: functional
[9] = Potency index, ratio of compound LD50 to isoniazid LD50 for mouse; type: ADME; conditions: in vivo
Neisseria gonorrhoeae [10] = assay: Antibacterial activity against Neisseria gonorrhoeae NCTC 8375/ATCC 19424 by two-fold serial dilution method; type: functional
Klebsiella pneumoniae = assay: Antibacterial activity against Klebsiella pneumoniae ATCC 13883 by two-fold serial dilution method; type: functional
Serratia marcescens = assay: Antibacterial activity against Serratia marcescens ATCC 13880 by two-fold serial dilution method; type: functional
Pseudomonas aeruginosa = assay: Antibacterial activity against Pseudomonas aeruginosa ATCC 9027 by two-fold serial dilution method; type: functional
Neisseria gonorrhoeae [11] = assay: Potency index, ratio of spectinomycin MIC to compound MIC for Neisseria gonorrhoeae NCTC 12700/ATCC 49226; type: functional
Proteus vulgaris = assay: Antibacterial activity against Proteus vulgaris RCPM 160125 (222) by two-fold serial dilution method; type: functional
[12] = Toxicity in orally dosed mouse; type: organism-based; conditions: in vivo, po

Compound | MIC (Citrobacter braakii) [µg/mL] | MIC (Staphylococcus aureus [1]) [µg/mL] | IC50 [2] [µM] | MIC (Neisseria gonorrhoeae [3]) [µg/mL] | MIC (Escherichia coli) [µg/mL] | Ratio (Neisseria gonorrhoeae [4]) | Ratio (Staphylococcus aureus [5]) | MIC (Neisseria gonorrhoeae [6]) [µg/mL] | LD50 at 336 h [7] [mg/kg] | MIC [8] [µg/mL] | MIC (Shigella flexneri) [µg/mL] | selectivity ratio [9] | MIC (Neisseria gonorrhoeae [10]) [µg/mL] | MIC (Klebsiella pneumoniae) [µg/mL] | MIC (Serratia marcescens) [µg/mL] | MIC (Pseudomonas aeruginosa) [µg/mL] | Ratio (Neisseria gonorrhoeae [11]) | MIC (Proteus vulgaris) [µg/mL] | LD50 [12] [mg/kg]
O=[N+]([O-])c1ccc(-c2ncncc2Br)o1 | > 250 | 7.8 (≈ 28.9 µM) | 167 | 3.9 (≈ 14.4 µM) | > 250 | <=16 | 4 | 0.97 (≈ 3.59 µM) | 300 | 1.5 (≈ 5.55 µM) | 7.8 (≈ 28.9 µM) | 2 | 7.8 (≈ 28.9 µM) | > 250 | > 250 | > 250 | <=16 | > 250 | –
O=[N+]([O-])c1ccc(-c2ncncc2-c2ccc(F)cc2F)o1 | > 500 | 31.2 (≈ 103 µM) | 66.8 | 31.2 (≈ 103 µM) | > 500 | <=16 | 4 | 3.9 (≈ 12.9 µM) | – | 12.5 (≈ 41.2 µM) | > 250 | – | 31.2 (≈ 103 µM) | > 500 | > 500 | > 500 | <=16 | > 250 | –
O=[N+]([O-])c1ccc(-c2ncncc2-c2ccc(C(F)(F)F)cc2C(F)(F)F)o1 | > 500 | 15.6 (≈ 38.7 µM) | 45.5 | 1000 (≈ 2480 µM) | > 500 | <=16 | 4 | 3.9 (≈ 9.67 µM) | – | 12.5 (≈ 31 µM) | > 250 | – | 1000 (≈ 2480 µM) | > 500 | > 500 | > 500 | <=16 | > 250 | –
O=[N+]([O-])c1ccc(-c2ncncc2-c2ccccc2)o1 | > 250 | 15.6 (≈ 58.4 µM) | 52.5 | 7.8 (≈ 29.2 µM) | > 250 | <=16 | 4 | 1.95 (≈ 7.3 µM) | 450 | 3.1 (≈ 11.6 µM) | > 250 | 3 | 3.9 (≈ 14.6 µM) | > 250 | > 250 | > 250 | <=16 | > 250 | –
O=[N+]([O-])c1ccc(-c2ncncc2-c2ccc(F)cc2)o1 | – | 62.5 (≈ 219 µM) | 69.8 | 31.2 (≈ 110 µM) | – | <=16 | 4 | 31.2 (≈ 110 µM) | – | 12.5 (≈ 43.8 µM) | – | – | 15.6 (≈ 54.7 µM) | – | – | – | <=16 | – | –
O=[N+]([O-])c1ccc(-c2ncncc2-c2cc(F)cc(F)c2)o1 | – | – | – | – | – | – | – | – | – | 12.5 (≈ 41.2 µM) | – | – | > 1000 | – | – | – | – | – | –
O=[N+]([O-])c1ccc(-c2ncncc2-c2ccccc2C(F)(F)F)o1 | > 250 | 15.6 (≈ 46.5 µM) | 74.4 | 15.6 (≈ 46.5 µM) | > 250 | <=16 | 4 | 3.9 (≈ 11.6 µM) | – | 12.5 (≈ 37.3 µM) | 62.5 (≈ 186 µM) | – | 15.6 (≈ 46.5 µM) | > 250 | > 250 | > 250 | <=16 | > 250 | –
O=[N+]([O-])c1ccc(-c2ncncc2-c2ccccc2F)o1 | > 250 | 15.6 (≈ 54.7 µM) | 67.5 | 7.8 (≈ 27.3 µM) | > 250 | <=16 | 4 | 1.95 (≈ 6.84 µM) | – | 12.5 (≈ 43.8 µM) | > 250 | – | 7.8 (≈ 27.3 µM) | > 250 | > 250 | > 250 | <=16 | > 250 | –
O=[N+]([O-])c1ccc(-c2ncncc2-c2cc(C(F)(F)F)cc(C(F)(F)F)c2)o1 | – | – | – | – | – | – | – | – | – | 12.5 (≈ 31 µM) | – | – | > 1000 | – | – | – | – | – | –
O=[N+]([O-])c1ccc(-c2ncncc2-c2ccc(C(F)(F)F)cc2)o1 | – | – | – | – | – | – | – | – | – | 12.5 (≈ 37.3 µM) | – | – | 500 (≈ 1490 µM) | – | – | – | – | – | –
O=[N+]([O-])c1ccc(-c2ncncc2-c2cccc(F)c2)o1 | > 250 | > 250 | 100 | 15.6 (≈ 54.7 µM) | > 250 | <=16 | 4 | 0.97 (≈ 3.4 µM) | – | 12.5 (≈ 43.8 µM) | > 250 | – | 3.9 (≈ 13.7 µM) | > 250 | > 250 | > 250 | <=16 | > 250 | –
O=[N+]([O-])c1ccc(-c2ncncc2-c2cccc(C(F)(F)F)c2)o1 | – | – | – | – | – | – | – | – | – | 12.5 (≈ 37.3 µM) | – | – | 125 (≈ 373 µM) | – | – | – | – | – | –
NNC(=O)c1ccncc1 [ISONIAZID] | – | – | – | – | – | – | – | – | – | 0.1 (≈ 0.729 µM) | – | – | – | – | – | – | – | – | –
NC(=O)c1cnccn1 [PYRAZINAMIDE] | – | – | – | – | – | – | – | – | – | 12.5 (≈ 102 µM) | – | – | – | – | – | – | – | – | –
CN[C@@H]1[C@H](O)[C@H](NC)[C@H]2O[C@@]3(O)C(=O)C[C@@H](C)O[C@H]3O[C@@H]2[C@H]1O [SPECTINOMYCIN] | 31.2 (≈ 94 µM) | 31.2 (≈ 94 µM) | > 752 | 15.6 (≈ 46.9 µM) | 15.6 (≈ 46.9 µM) | – | – | 15.6 (≈ 46.9 µM) | – | – | 7.8 (≈ 23.5 µM) | – | 15.6 (≈ 46.9 µM) | 15.6 (≈ 46.9 µM) | 15.6 (≈ 46.9 µM) | 250 (≈ 752 µM) | – | 125 (≈ 376 µM) | > 10000
